Read-outs that look alike come from different tables or passages of the source.
Assays:
[1] = tested on: DC-3F, K-562 and Lewis Lung Carcinoma cells; test: In vitro electroporation, MTT viability assay; assay type: cell-based, Chinese hamster, human, murine
Description: Three cell lines are used for in vitro experiments, DC-3F, a transformed Chinese hamster lung fibroblast cell line; K-562, a human leukemia cell line; and Lewis Lung Carcinoma, a murine lung carcinoma cell line. DC-3F cells were tested for mycoplasma in January 2011, K-562 cells were tested for mycoplasma in 2008 prior to freezing and thawing just before experiments were performed, and Lewis Lung cells were tested by rapid MAP27 panel (Taconic, Hudson N.Y.) in July 2011 without signs of infection. Cells are maintained in RPMI 1640 culture medium (GIBCO™, Life Technologies, Carlsbad, Calif.) with 10% fetal calf serum (GIBCO™, Life Technologies, Carlsbad, Calif.), penicillin and streptomycin at 37° C. and 5% C02. After harvesting, cells are washed and diluted in HEPES buffer containing 10 mM HEPES (Lonza, Basel, Switzerland), 250 mM sucrose and 1 mM MgCl2 in sterile water. 270 μl cell suspension (6.1×10^6 cells/ml) and 30 μl CaCl2, or in the case of controls, HEPES buffer, are electroporated in 4 mm wide cuvettes with aluminium electrodes (Molecular BioProducts, Inc., San Diego, Calif.). Cooled cells (8° C.) are exposed to 8 pulses of 1.2 kV/cm with pulse duration of 99 μs (DC-3F and K562 cells) or 8 pulses of 1.4 kV/cm with pulse duration of 99 μs (Lewis Lung Carcinoma) using a BTX® T820 square wave electroporator (BTX®, Harvard Apparatus, Holliston, Mass.). The electroporation parameters are chosen after optimization to obtain high permabilisation and cell survival. After 20 min at 37° C. and 5% CO2 cells are diluted in RPMI 1640 culture medium with 10% fetal calf serum and penicillin-streptomycin and seeded in 96-well plates at a concentration of 3.1×10^4 cells/100 μl.
Difference between electroporated and non-electroporated cells in identical buffer is assessed using two-way analysis of variance (ANOVA) with post least-squares-means test with Bonferroni correction for multiple comparisons.

DC-3F cells = test: ATP assay after calcium electroporation; assay type: cell-based, Chinese hamster
Description: DC-3F cells are electroporated as described in Example 1 with 1 mM calcium. Cells electroporated with HEPES buffer, non-electroporated cells with 1 mM calcium, and untreated cells are used as controls. Cell death induced by irreversible electroporation (8 pulses of 6.6 kV/cm with pulse duration of 99 μs) is used as […]. Cells are seeded in 96-well plates at a concentration of 3.1×10^4 cells/100 μl. Cells are lysed using Cell-Based Assay Lysis Buffer (Cayman Chemical, Ann Arbor, Mich.) and ATP content is determined after 1, 4 and 8 hours incubation by adding 100 μl rL/L Reagent (ENLITEN® ATP assay, Promega, Madison, Wis.) and measuring light emission using a luminometer (LUMIstar®, BMG biotechnology, Ortenberg, Germany).
Difference in ATP level after different treatments is assessed using two-way ANOVA with post least-squares-means test with Bonferroni correction for multiple comparisons.

[2] = tested on: H69 (human small cell lung cancer) tumors; test: Hypothetical volume test of injected solution; assay type: in vivo, NMRI-Foxn1^nu mice; settings: with electroporation
Description: H69, a human small cell lung cancer cell line stably transfected with EGFP regulated by the cytomegalo-virus (CMV) promoter, is used for the in vivo experiments. The cells are tested by rapid MAP27 panel (Taconic, Hudson N.Y.) before use without signs of infection. Cells are maintained in vitro as described in Example 1. 1.5×10^6 cells/100 μl PBS are injected subcutaneously in both flanks of NMRI-Foxn1^nu mice (Harlan, Indianapolis, Ind.) that are 9-11 weeks old. Tumor pieces are transplanted from donor mice to the right flank of nude mice. HYPNORM™-DORMICUM™ (fentanyl/fluanisone/midazolam; VetaPharma, Leeds, U K and Roche, Basel, Switzerland) is used for anesthesia complemented with RIMADYL® (Carprofen) (Pfizer ApS, Ballerup, Denmark) […] as lidocaine (Region Hovedstadens Apotek, Herlev, Denmark) in the incision. […] Tumor volume is calculated as ab^2n/6, where “a” is the largest diameter and “b” is the largest diameter perpendicular to “a”. […] Background fluorescence is measured on the opposite flank and then the background fluorescence level is subtracted from fluorescence intensity of tumors. Finally, all fluorescence intensity below 100 normalised counts (NC) is filtered away using ART, Saint-Laurent, Quebec OPTIX® Optiview version 2.02 software (ART, Saint-Laurent, Quebec).
The differences in tumor volume and fluorescence intensity between tumors injected with the different solution volumes in the 4 treatment groups are evaluated as repeated measurements, validated and analysed with an exponential decrease model with Bonferroni correction for multiple comparisons using SAS® software version 9.1 (SAS, Cary, N.C.). ‘Group’, ‘days’ and ‘mouse’ are considered as factors and baseline levels of tumor volume or fluorescence intensity are used as covariant.

In the case of `[Ca+2].[Cl-].[Cl-]` [calcium chloride], the EC50 ([1]; all electroporated cell lines, 8 pulses 1.2-1.4 kV/cm, 99 μs, MTT 1 and 2 days after treatment, read-out: EC50 (decrease in viability)) is reported as 570 µM, the “lowest concentration inducing high cell death” value ([1]; electroporated) is reported as 1 mM and the “calcium concentration from which viability decreases significantly (p<0.01)” value ([1]; electroporated, all cell lines) is reported as no less than 0.5 mM. For the same molecule, the “cell death after calcium electroporation” value ([1]; electroporated, all three cell lines) was “dose dependent cell death”, the “effect on cell viability” value ([1]; non-electroporated cells, high calcium concentrations) was “no effect on cell viability” and the EC50 ([1]; range over the electroporated cell lines, read-out: EC50 range (decrease in viability)) was 350 to 790 µM. For the same molecule, the “EC50 (decrease in viability)” value ([1]; without electroporation) was “not reached”, the “ATP level, percent of control” value (DC-3F cells; 1 mM calcium with electroporation, up to 8 hours after treatment) was 10.3% and the “effect on ATP levels” value (DC-3F cells; 1 mM calcium without electroporation) was “does not affect ATP levels”. For the same molecule, the tumors eliminated ([2]; volume ratio 0.2, 004, 0.6 or 0.8) was “eliminates most of the tumors”, the “ulceration of treated tumors” value [2] was “occurs in most” and the “fluorescence intensity of tumors” value ([2]; all 4 injection volumes) was “decrease drastically”.
